In patent US9328331B2, “Compositions and methods for promoting beta cell maturity” (Joslin Diabetes Center, Inc., priority 2009, dated 2016):

Assays:
beta cells = conditions: Verga et al. 2006; cited from earlier work
single beta cells = test: Reverse hemolytic plaque assay (RHPA) of insulin secretion from single beta cells; type: cell-based, rat
Description: (§1) RHPA allows the evaluation of secretion from single beta cells (see, e.g., Bosco et al., Am. J. Physiol., 268:C611-C618, 1995; Aguayo-Mazzucato et al., PLoS ONE, 1:e35, 2006). Briefly, insulin secreted during incubation with glucose binds to anti-insulin antibody and complement and lyses RBCs forming hemolytic immunoplaques around secreting cells. Accordingly, the area of the hemolytic plaque is proportional to the amount of insulin secreted by that individual cell. Glucose-stimulated insulin secretion (GSIS) is reflected by the secretion index: the product of the percentage of secreting cells and the mean area of immunoplaques. RHPA is a very sensitive assay in which the proportion of cells secreting and the robustness of their secretion can be measured. However it is laborious, therefore classic static insulin secretion studies were also performed with an insulin ELISA for measurement. Insulin secretion was measured in static conditions by sequential incubation in 2.6 mM and 16.8 mM glucose in Krebs-Ringer bicarbonate buffer (KRB, 16 mM HEPES and 0.1% BSA, pH 7.4) as previously described (Schuppin et al., In Vitro Cell Dev Biol Anim 29A:339-344 (1993); Salomon et al., Exp Cell Res 162:507-520 (1986)). Supernatants and cells were frozen until assayed for Insulin content.
(§2) Similar results were found in static incubation experiments were performed with P7 dispersed islets cultured in the presence (or absence) of 10^−11 M T3 for four days. mRNA levels for MafA and Ins2 were evaluated using real-time PCR. […] To further evaluate insulin secretion in these cells, P8 islets were dispersed and then cultured for 4 days with and without 10^−11 M T3, and a reverse hemolytic plaque assay (RHPA) was used to evaluate insulin secretion from single beta cells. […] FIGS. 8A-8B show beta cell glucose responsiveness in 2.8 or 16.8 mM glucose in control cells (8A) or cells treated with T3 (8B) in one of the three RHPA experiments.

P7 dispersed islets = test: Glucose-stimulated insulin secretion by static incubation, insulin ELISA; type: cell-based, rat; conditions: 10^−11 M T3 for four days, FIG. 6B
Description: as §1, with “However it is laborious, therefore classic static insulin secretion studies were also performed with an insulin ELISA for measurement.” left out, “Supernatants and cells were frozen until assayed for Insulin content.” left out
Similar results were found in static incubation experiments were performed with P7 dispersed islets cultured in the presence (or absence) of 10^−11 M T3 for four days. mRNA levels for MafA and Ins2 were evaluated using real-time PCR. […]

neonatal islets [1] = test: Quantitative PCR of MafA, insulin and other gene transcription in dispersed neonatal islets cultured with glucose and T3; type: cell-based, rat; conditions: P7 islets cultured with glucose and T3 at 0.015 nM in CS-FBS for four days, separately and together, FIG. 5A legend
[2] = in vivo administration, rats, Hartoft-Nielson et al. 2009; cited from earlier work
neonatal islets [3] = test: Quantitative PCR of MafA, insulin and other gene transcription in dispersed neonatal islets cultured with glucose and T3; type: cell-based, rat; conditions: for insulin mRNA / MafA mRNA: 4 days
Description: To analyze the role of thyroid hormone during postnatal development of the endocrine pancreas, dispersed P7 islets were cultured with the two changing physiological stimuli identified so far glucose (11 mM and 20 mM) and tri-iodothyronine (T3 at 10^−11 M in charcoal-stripped fetal bovine serum (CS-FBS)), and after 4 days MafA and insulin transcription were assessed.
To further explore this idea, dispersed P8 islets were cultured with two changing physiological stimuli identified so far glucose (11 mM and 20 mM) and tri-iodothyronine (T3) at a concentration of 10^−11 M (T-11; gray bars) or with […] T3 (T-9) in charcoal-stripped fetal bovine serum (CS-FBS); after 4 days transcription levels of MafA and the MafA targets Ins2, GLP1R, PCSK1, PC, and LDH-A were assessed.
as §2

pancreatic acinar cells = conditions: Ledda-Columbano et al. 2005; cited from earlier work
HPANC-1 = conditions: non-insulin expressing human epithelial cell line HPANC-1, Misiti et al. 2005; cited from earlier work
[4] = P8 islet cells treated with T3 vs control untreated cells, quantitative PCR, FIG. 9
[5] = P8 islets cultured for 4 days with 0.015 nM T3 (T-9)
[6] = dispersed P8 islets, glucose (11 mM and 20 mM) and T3, CS-FBS, FIG. 5C

In the case of `N[C@@H](Cc1cc(I)c(Oc2ccc(O)c(I)c2)c(I)c1)C(=O)O` [T3, L-3,5,3′-triiodothyronine], the “apoptosis in beta cells” value (beta cells) is listed as “reduces apoptosis”, the “cell proliferation in beta cells” value (beta cells) is listed as “promotes cell proliferation” and the “insulin secretion in response to 16.8 mM glucose” value (single beta cells; P7 cells cultured for 4 days with thyroid hormone, one experiment) is listed as “an increase in insulin secretion”. For the same molecule, the “insulin secretion in the presence 16.8 mM glucose” value (single beta cells; P7 cells treated with T3 compared to untreated control cells, FIGS. 7A and 7B legend) was “increases insulin secretion”, the insulin secretion index (single beta cells; dispersed P8 islets cultured for 4 days with 10^−11 M T3, FIG. 7A) was “marked increase” and the “percentage of insulin secreting cells” value (single beta cells; dispersed P8 islets cultured for 4 days with 10^−11 M T3, FIG. 7B) was “marked increase”. For the same molecule, the Glucose-stimulated insulin secretion (P7 dispersed islets) was “significantly increased”, the MafA transcription (neonatal islets [1]) was “increase” and the beta cell mass [2] was “increased”. The “incidence of type I diabetes” value [2] was “reduced”, the “MafA mRNA levels increase” value (neonatal islets [3]; P7 dispersed islets, 10^−11 M T3 for four days, real-time PCR, FIG. 6A) was “about two-fold” and the “transcription of MCT1” value (neonatal islets [3]; [4]) was “significantly increases”. The “transcription of MafA” value (neonatal islets [3]; [4]) was “significantly increases”, the “transcription of TRb” value (neonatal islets [3]; [4]) was “significantly increases” and the “MafA mRNA increase compared with control cultured islets” value (neonatal islets [3]; [5]) was 2.5 fold. For the same molecule, the “insulin mRNA increase compared with control cultured islets” value (neonatal islets [3]; [5]) was 71%, the “insulin mRNA” value (neonatal islets [3]; dispersed P7 islets, glucose (11 mM and 20 mM) and T3 at 10^−11 M in CS-FBS, stimuli separately and together) was “significantly increased” and the “MafA mRNA” value (neonatal islets [3]; dispersed P7 islets, glucose (11 mM and 20 mM) and T3 at 10^−11 M in CS-FBS, stimuli separately and together, FIG. 5A) was “significantly increased”. For the same molecule, the “MafA mRNA” value (neonatal islets [3]; [6]) was “significantly increased”, the “insulin mRNA” value (neonatal islets [3]; [6]) was “significantly increased” and the “proliferation in pancreatic acinar cells” value (pancreatic acinar cells) was “promotes increased proliferation”. For the same molecule, the “proliferation in pancreatic islet (e.g., beta cells) and ductal cells” value (pancreatic acinar cells) was “but not in pancreatic islet (e.g., beta cells) and ductal cells” and the “differentiation to or towards a glucose responsive insulin secreting cell line” value (HPANC-1) was “promote differentiation”.
